According to a melting point compilation (Tetko et al.):

| SMILES | melting point [°C] |
| --- | --- |
| CC(C)S(=O)(=O)CC#N | 32 to 34 |
| O=C(Nc1cccc([N+](=O)[O-])c1)c1ccccc1 | 155 |
| CC1(C)CC(CN2C(=O)C=CC2=O)C(C)(C)N1O (centres undefined) | 148 to 150 |
| N#Cc1c(C(F)(F)F)cc(-c2ccccc2)[nH]c1=O | 301 to 303 |
| CC=Cc1ccc(OC)c(OC)c1 | 18 |
| Nc1ccc(F)c(C(=O)O)c1 | 191 |
| COP(=S)(OC)Oc1ccc(C#N)cc1 | 14.5 |
| CN1C(=O)CN=C(c2ccccc2F)c2cc(Cl)ccc21 | 296 |
| COc1ccccc1-c1ccc(C=C2C(=O)OC(C)(C)OC2=O)o1 | 147 |
| O=C(O)C1CCCN1 (centres undefined) | 228 to 233 |
| Cc1ccc([C@@H]2CC(=O)[C@@H](c3ccccc3)[C@H](c3ccc(C)cc3)N2)cc1 | 148 |
| O=c1nc2ccccc2nc(C(F)(F)F)c1NNc1cccnc1 | 157 |
| Cc1occc1C(=O)Nc1ccccc1 | 110 |
| Cc1ccc(S(=O)(=O)N[C@H](c2ccccc2)[C@H](NS(=O)(=O)c2ccc(C)cc2)c2ccccc2)cc1 | 203 to 208 |
| O=S(=O)(N(c1ccccc1)S(=O)(=O)C(F)(F)F)C(F)(F)F | 99 to 105 |
| CC(C(O)c1ccccc1)N(C)CC=Cc1ccccc1 (centres undefined) | 75 |
| CNC(=O)ON=CC(C)(C)S(C)(=O)=O | 141 |
| O=S1(=O)OC(c2ccc(O)c(Cl)c2)(c2ccc(O)c(Cl)c2)c2ccccc21 | 261 |
| NC1(P(=O)(O)O)CCCC1 | 274 to 276 |
| CC1(C)CC(=O)C2=C(C1)OC1CCCCC21 (centres undefined) | 63 to 66 |
| S=C1NC2=C(CCCC2=Cc2ccccc2)C(c2ccccc2)N1 (centres undefined) | 190 to 192 |

| SMILES | melting point [°C] |
| --- | --- |
| CCC(O)(CC)C1(C)CCC(C(=O)OC)C(C)(C)O1 (centres undefined) | 162 |
| c1ccc2c(c1)c1cccc3c4c5ccccc5c5cccc(c2c13)c54 | 305 |
| C=CCOCC=C | -6 |
| N#CC(C#N)=C1C(=O)NN(c2ccccc2)C1=O | 289 |
| c1ccc(CN(CC2=NCCN2)c2ccccc2)cc1 | 120 |
| C=C(C)C(=O)OCC(C)C | -37 |
| O=C(O)CC(Br)C(=O)O (racemic) | 160 to 166 |
| O=[N+]([O-])c1ccc(Oc2c(Cl)cc(Cl)cc2Cl)cc1 | 106 |
| NS(=O)(=O)c1ccc(C(F)(F)F)cc1 | 180 |
| O=C(O)c1nc(Cl)ccc1Cl | 151 |
| NC(=S)c1csc2ccccc12 | 121 to 124 |
| O=P(O)(O)Cc1ccccc1 | 169 |
| COc1ccc2[nH]cc(CCN(C(C)C)C(C)C)c2c1 | 181 |
| COc1cc(NC(=S)Nc2ccc(Br)cc2)c(C(c2ccc(C)o2)c2ccc(C)o2)cc1OC | 167 |
| CC1CCc2cc3c(cc2N1)CCC(C)N3C(=O)c1ccccc1 (centres undefined) | 145 |
| Nc1cccc(S(=O)(=O)N2CCCCC2)c1 | 117 to 118 |
| CCCCCCCCC=CCCCCCCCC(=O)Nc1ccccc1 | 41 |
| CCCCCCCCCCCC(=O)OOC(=O)CCCCCCCCCCC | 53 to 57 |
| CCOC(=O)c1c(NC(=O)CN(CC)CC)sc2c1CCCC2 | 74 to 75 |
| CN(C)C=Nc1c(I)cc(I)c(CCC(=O)O)c1I | 168 |
| Nc1ccc(Cl)cc1I | 40 to 42 |

| SMILES | melting point [°C] |
| --- | --- |
| BrCc1ccc2nonc2c1 | 77 to 80 |
| BrCc1nc2ccccc2s1 | 47 |
| NC(=O)Nc1ccccn1 | 173 to 175 |
| O=P(OCCCl)(OCCCl)OCCCl | -35 |
| Nc1ccc(O)cc1[N+](=O)[O-] | 151 |
| O=P1(NC2CCCCC2)Oc2ccccc2-c2ccccc2O1 | 160 |
| Cc1ccc2cccc-2cc1 | 82 to 83 |
| Cc1cc(C(F)(F)F)n2nc(N)c(/N=N/c3ccccc3Cl)c2n1 | 238 |
| CCOC(=O)c1nn(-c2ccc(C)cc2)c(C)c1C(=O)c1noc(-c2ccc(Br)cc2)c1S(=O)(=O)c1ccccc1 | 170 |
| C=C(C)n1c(=O)[nH]c2ccccc21 | 120 to 124 |
| Brc1cccc2cnccc12 | 82 |
| Cc1nc(-c2ccc(S(=O)(=O)NN)cc2)c(-c2ccc(S(=O)(=O)NN)cc2)o1 | 178 to 180 |
| CC12CCC3C(CCC4CC(OCc5ccccc5)CCC43C)C1CCC2O (centres undefined) | 225 |
| Cc1ccc(S(=O)(=O)n2cc(C=CC(=O)O)c3ccccc32)cc1 | 238 to 241 |
| Nc1nn2c(C(F)(F)F)cc(=O)[nH]c2c1/N=N/c1cccc2ccccc12 | 290 |
| COC(=O)c1ccc(N)nc1 | 159 to 160 |
| C=CCOC(=O)Nc1cc(O)cc(C(=O)O)c1 | 194 to 197 |
| Cc1cc(N)c(N)cc1Cl | 137 to 140 |
| NS(=O)(=O)Cc1ccccc1 | 103 |
| N#Cc1ccc2ccccc2n1 | 95 |

More lines, now with the values ahead:

| melting point [°C] | SMILES |
| --- | --- |
| 155 to 157 | Cc1ccccc1OCC(=O)O |
| 170 | O=C(Nc1ccccc1)OC1CCCCC(OC(=O)Nc2ccccc2)C1 (centres undefined) |
| 135 | O=C(O)CCc1ccc(Br)cc1 |
| 180 to 182 | O=C(O)c1cccc(-c2ncccn2)c1 |
| 140 to 142 | O=C(Cl)c1cc(Cl)nc2ccc(Br)cc12 |
| 218 to 220 | Clc1ccc(Nc2ncnc3c2cnn3-c2ccccc2)cc1 |
| 54 to 56 | CC(=O)c1ccc(Oc2ccc(Cl)cc2)cc1Cl |
| 30 | Nc1cccc(C=O)c1 |
| 22.5 | CCCS(=O)CCC |
| 147 | NS(=O)(=O)c1cc(C(F)(F)F)ccc1C(F)(F)F |
| 102 | Cc1nn(C)c(Oc2ccccc2)c1C=NOCc1ccc(C(=O)OC(C)(C)C)cc1 |
| 140 | c1ccc2cc(SSc3ccc4ccccc4c3)ccc2c1 |
| 105 to 108 | CCOC(=O)C1=C(N)Oc2ccc(Br)cc2C1C(C#N)C(=O)OCC (centres undefined) |
| 172 to 176 | CC(C)n1c(C(F)(F)F)nc2cc(C(=O)O)ccc21 |
| 244 to 247 | Cn1c(-c2ccc(Cl)cc2)cnc1S |
| -51 | C=C(C)CCCCCCCC |
| 71 | CC1=Nc2c(ccc3ccccc23)C1(C)C |
| 98 | COc1cc(C(c2ccc(C)o2)c2ccc(C)o2)c([N+](=O)[O-])cc1OC |
| 51 to 55 | CC(C)(C)OC(=O)NCc1cccc(CO)c1 |
| 24 to 25 | Clc1nc(Br)ns1 |
| 235 to 240 | O=C(O)c1cc(O)cc(O)c1 |
| 168 | CC1=C(C)S(=O)(=O)CCS1(=O)=O |
| 94 to 95 | CCCCCCCCCCCCCC=CC(O)C(CO)NC(=O)CCCCCCCCCCCCCCC (centres undefined) |

| melting point [°C] | SMILES |
| --- | --- |
| 66 to 69 | Cc1nccc(-c2cccc(Br)c2)n1 |
| 255 | S=c1oc2ccccc2n1CN1CCCCC1 |
| 73.5 | CCOCOC(=O)c1ccccc1Nc1c(Cl)ccc(C)c1Cl |
| 32 to 34 | Ic1cccc(CN2CCOCC2)c1 |
| 164 | O=CC(O)C(O)CO (centres undefined) |
| 187 | O=C(O)c1cccc2cccnc12 |
| 127 | Cc1ccc(S(=O)(=O)c2ccccc2)cc1 |
| 62 | NNc1ccc(C(F)(F)F)cc1 |
| 145 to 147 | CC1(C)CC(=O)c2cc(-c3ccccc3)n(-c3cccc(C(F)(F)F)c3)c2C1 |
| 39 to 44 | C(=Cc1ccccc1)CN1CCNCC1 |
| -60 | CCCCCCl |
| 38 to 43 | Nc1ccc2c(c1)OCO2 |
| 28.6 | CCCCCCCCCCCCCCCCCCCl |
| 163 to 164 | COC(=O)c1ccc(C(=O)OC)nc1 |
| 21 | Nc1ccc(F)c(F)c1 |
| 104 to 107 | FC(F)(F)c1cc(Cl)c2cc(Cl)ccc2n1 |
| 26 | Cc1cnc(Cl)nc1Cl |
| 136 | Cc1cccc(N/N=C2/C(=O)N(c3ccccc3)N=C2C(F)(F)F)c1C |
| 188 | N#C/C(=C\c1ccccc1O)c1nc2ccccc2s1 |
| 177 | C(#Cc1ccc(C#Cc2ccccc2)cc1)c1ccccc1 |
| 196 | O=[N+]([O-])c1ccc(ON=Cc2cc(Br)c(O)c(Br)c2)c([N+](=O)[O-])c1 |
| -30 | CC(CC(C)(C)C1CCCCC1)C1CCCCC1 (centres undefined) |
| 56.9 | CC1(C)CC(=O)[C@]2(C)C=C[C@H]1N(c1ccccc1)O2 |

| melting point [°C] | SMILES |
| --- | --- |
| 207 | CN(C1=NC(=Cc2ccccc2)C(=O)N1c1ccccc1)c1ccccc1 |
| 42 to 45 | CCOC(=O)Cn1c(Br)nc(Cl)c1Cl |
| -15.7 | CCCOC(=O)CCCCC(=O)OCCC |
| 68.5 | CCCC(C)(O)C#CC(C)(O)CCC (centres undefined) |
| 116 | CC1(C)OC(=O)C(=Cc2ccc(Br)o2)C(=O)O1 |
| 192 to 193 | CCOC(=O)CSc1nc(=O)[nH]c2c1CCCC2 |
| 144 | Cn1c(=O)c2c(ncn2CC2OCCO2)n(C)c1=O |
| 79 to 81 | COc1ccc(-c2noc(C)c2C(=O)Cl)cc1 |
| 75 to 77 | Cc1cc(C(=O)CC#N)c(C(F)(F)F)o1 |
| 153 to 155 | O=S1(=O)CCc2ccccc2CC1 |
| 175 | N#Cc1nc[nH]c1C#N |
| 218 to 220 | FC(F)(F)c1cc(Br)c2nc[nH]c2c1 |
| 133 to 137 | Nc1cc(O)c(Cl)cc1Cl |
| 82 | O=COC1OC(=O)c2ccccc21 (centres undefined) |
| 100 to 103 | COC(=O)Cn1nnc(N2CCOCC2)n1 |
| 132 | O=C1C=CC2=CC(=O)C=CC2=C1 |
| 116 | CCOC(=O)C=Cc1cc(C=CC(=O)OCC)c([N+](=O)[O-])cc1[N+](=O)[O-] |
| 241 to 242 | Cc1ccc(-c2ccc3c(c2)C=CC(=C2C(=O)c4ccccc4C2=O)N3)cc1 |
| 108 to 109 | CC(=O)Oc1c(C)cc(O)c(C)c1C |
| 168 to 169 | Nc1nnc(Br)s1 |
| 61 | C1CCCCCCCCCCCCCCC1 |
